Assay results reported in patent US11666562B2, “Ilaprazole for inhibiting the release of enveloped viruses from cells” (Northwestern University, priority 2020, dated 2023).
Where two headings read alike, the source gives them in different places.

Columns and labels:
HSV-2 [1] = experiment: Transmission electron microscopy of HSV-2 infected Vero cells, location of virus particles; format: cell-based, Herpes simplex virus-2(A/B-G); settings: 24 h, 80 cells
Protocol: Cellular location of tenatoprazole inhibition. We next imaged herpesvirus infected-Vero cells using transmission electron microscopy to determine the site of inhibition of release of virus and whether it was similar to observations of HIV-1 release from 293T cells. Vero cells grown on glass cover slips were infected with HSV-2 at MOI of 0.1 pfu/cell for 2 h and then treated for 24 h with 105 μM tenatoprazole or vehicle control. In the no drug control, virus particles were in both the nucleus and cytoplasm near the cell surface (FIG. 2A). In the tenatoprazole-treated cells the cytosol of all of the intact cells was largely devoid of virus particles (FIG. 2B). Instead, we observed large pockets of granular material accumulated in the nucleus and immature virus particles inside the nucleus and lining the inside of the nuclear membrane (inset, B).
We next carried out a transmission electron microscopic examination of cells infected with HSV-2 at a MOI 0.1 in the presence and absence of 18 μM ilaprazole to determine if this drug causes the accumulation of virus particles in the nucleus of cells similar to tenatoprazole. Without drug, we observe particles in the cytoplasm and in the nucleus (FIGS. 4A & B), in the presence of drug little or no viral particles are found in the cytoplasm (FIGS. 4C & D). In both heavily infected cells (FIGS. 4A & C) and mildly infected cells (FIGS. 4B & D), treatment lead to particles being detected in the nucleus and arrayed along the nuclear membrane but lacking in the cytosol. […] Similar results were obtained with HSV-1 infected cells (FIG. 4E-H). Particles are seen in both the cytoplasm and nucleus in the absence of drug and just in the nucleus in the presence of drug. […] The lower total infectious virus detected in Table 3 (FIG. 7) is consistent with blockage of the virus passaging out of the nucleus into the cytoplasm where membranes are exchanged and virus becomes infectious.
Transmission electron Microscopy. Vero cells on glass cover slips were infected with HSV-2 at a MOI of 0.1 for two hours. Then 105 μM of tenatoprazole or 18 μM Ilaprazole was added and cells incubated for 24 hours. Tissue samples were fixed in 0.1 M sodium cacodylate buffer pH 7.3 containing 2% paraformaldehyde and 2.5% glutaraldehyde and post-fixed with 2% osmium tetroxide in unbuffered aqueous solution. The samples were rinsed with distilled water, en bloc stained with 3% uranyl acetate, rinsed with distilled water, dehydrated in ascending grades of ethanol, transitioned with propylene oxide, embedded in the resin mixture of Embed 812 kit and cured in a 60° C. oven. Samples were sectioned on a Leica Ultracut UC6 ultramicrotome. 1 μm thick sections were collected and stained with Toluidine Blue O and 70 nm sections were collected on 200 mesh copper grids; thin sections were stained with uranyl acetate and Reynolds lead citrate. Transmission electron microscopy (TEM) was performed on a FEI Tecnai Spirit G2.

HSV-2 [2] = experiment: Release of HSV-2 from infected Vero cells, plaque assay; format: cell-based, Herpes simplex virus-2(A/B-G); settings: for EC50: Human alphaherpesvirus 2, MOI 0.1, 24 h, read-out: EC50, inhibition of HSV-2 release; for Total infectious virus (released plus inside cells), HSV-2: 24 h, freeze/thaw lysate
Protocol: (§1) We infected Vero cells with HSV-1 and HSV-2 for two hours at a multiplicity of infection (MOI in pfu\cell) of 0.1 to assay the antiviral activity of tenatoprazole. Following infection, cells were treated with different concentrations of tenatoprazole. After 24 or 48 h the media fractions were collected and released virus titers were determined by standard plaque assays (30). Tenatoprazole caused a 3-log drop of HSV-1 and 4-5 log drop of HSV-2 in released infectious virus from Vero cells at 24 hours after infection in a dose dependent manner (Table 1, shown in FIG. 5, columns 2 and 3) with calculated EC50's ranging from 48-80 μM. Total virus titer was also determined to differentiate between virus released into the media and infectious particles present in cell lysate. […] The concentrations of tenatoprazole that blocked virus release were nontoxic to Vero cells as determined by a 96® AQueous One Solution cell proliferation assay reagent (Table 1, shown in FIG. 5, column 7). Taken together, tenatoprazole inhibited levels of both released and infectious virus particles without affecting cell viability at effective concentrations.
To examine the effects of the compounds on the release of HSV-2 from Vero cells, we infected the cells with virus two hours prior to treatment with media containing different concentrations of compound. We incubated the cells for 24 or 48 hours and then collected the cell media fractions.
(§2) Herpesvirus infection of Vero cells. Vero cells (0.8×10^6 cells/well of a 6-well plate) were infected with HSV-1 or HSV-2 at a MOI of 0.1 pfu/cell in DMEM with 1% serum for two hours in the C02 incubator at 37° C. In one experiment looking at the effect of tenatoprazole on HSV-2 release from cells 24 and 48 h a MOI of 3 pfu/cell was used. The cell supernatants were aspirated and replaced with 1 ml (24 h) or 2 ml (48 h and 72 h) of DMEM with 1% serum with DMSO or different concentrations of drug (tenatoprazole, ilaprazole, or analogs) dissolved in DMSO. After 24 or 48 h incubation, the cell supernatant was collected and frozen at −80° C. Virus titer in the cell media fraction was determined by standard plaque assays using 10-fold serial dilutions of cell supernatants of Vero cells and incubated for 48 h after which cells were fixed and stained to count the plaques (22). For determination of total virus (extracellular+cytoplasmic), virus infected cells were incubated for 24 h with and without drug presence, then the plate of cells were subjected to 3 cycles of freeze/thawing (−80° C./37° C.) 30 min each prior to collecting the supernatant after centrifugation for measurement of total virus titer. Virus titer was measured by standard plaque assay as above.
(§3) Drug potency and cell toxicity. EC50 calculations were determined by using AAT Bioquest's EC50 calculator. Cell toxicity at different concentrations of drugs as indicated was determine using the Cell Proliferation Reagent WST-1 (Roche Diagnostics) or cellular 96® Aqueous One Reagent viability reagent according to manufacturer's instructions. For 293T cells, the concentration of DMSO was 0.2% or less and assays were carried out with DMEM with 10% serum. Cell toxicity experiments were repeated twice.

Vero cells = experiment: Vero cell viability/toxicity (96 AQueous One Solution / WST-1); format: cell-based
Protocol: as §3

HSV-1 = experiment: Release of HSV-1 from infected Vero cells, plaque assay; format: cell-based, Herpes simplex virus-1 (Kos strain); settings: for EC50: Human alphaherpesvirus 1; for Duration of inhibition of HSV-1 release after a single application: data not shown
Protocol: as §1, §2, §3

[3] = Vero cells, MOI 0.1, 24 h, read-out: EC50, inhibition of HSV-1 release
[4] = Vero cells, 24 hours after infection, dose dependent

SMILES	Average number of virus particles in the nucleus (HSV-2 [1]; HSV-2, 18 μM ilaprazole)	Range of number of virus particles in the nucleus (HSV-2 [1]; HSV-2, 18 μM ilaprazole)	Virus particles in the cytoplasm (HSV-2 [1]; HSV-2, 18 μM ilaprazole)	EC50 (HSV-2 [2]; Vero cells)	Anti-HSV-2 activity (release from Vero cells), in words (HSV-2 [2]; Table 2, 24 h)	Total infectious virus (released plus inside cells), HSV-2 (HSV-2 [2]; Vero cells)	Cell toxicity to Vero cells (Vero cells)	EC50 (HSV-1; Vero cells, 72 h after a single application (Table 3A columns 2 & 4, HSV-1), read-out: 72 h EC50, inhibition of virus release)	EC50 (HSV-1; [3])	Total infectious virus (released plus inside cells), HSV-1 (HSV-1; Vero cells, freeze/thaw lysate)	Duration of inhibition of HSV-1 release after a single application (HSV-1)	Average number of virus particles in the nucleus (HSV-2 [1]; HSV-2, 105 μM tenatoprazole)	Virus particles in the cytoplasm (HSV-2 [1]; HSV-2, 105 μM tenatoprazole)	Drop in released infectious HSV-2 (HSV-2 [2]; [4])	Duration of inhibition of HSV-2 release after a single application (HSV-2 [2]; data not shown)	Cell toxicity to Vero cells (Vero cells; at concentrations that block virus release, 24 h)	Drop in released infectious HSV-1 (HSV-1; [4])
COc1ccnc(C[S+]([O-])c2nc3ccc(-n4cccc4)cc3[nH]2)c1C (stereo not drawn) [Ilaprazole, 2-[(4-methoxy-3-methylpyridin-2-yl)methylsulfinyl]-6-pyrrol-1-yl-1H-benzimidazole]	31 particles	9-56 particles	0 particles	3 to 9 µM	potent antiviral activity	significant drop in total virus	did not observe cell toxicity	0.8 to 1.2 µM	3 to 9 µM	significant drop in total virus	Significant inhibition was still observed at 4 and 5 days	–	–	–	–	–	–
COc1ccc2[nH]c([S+]([O-])Cc3ncc(C)c(OC)c3C)nc2n1 (stereo not drawn) [Tenatoprazole]	–	–	–	48 to 80 µM	–	reduced by tenatoprazole, but not as strongly as virus released into the media	–	–	48 to 80 µM	–	began to fall off after 48 h	31 particles	did not detect virus particles	4-5 log	began to fall off after 48 h	nontoxic	3 log
